Columns and labels:
[1] = organism: Rattus norvegicus; assay: The biodistribution in liver in normal Wistar rats at 60 min; assay type: ADME, organism-based; conditions: in vivo, 1 h
[2] = organism: Rattus norvegicus; assay: The biodistribution in liver in normal Wistar rats at 30 min; assay type: ADME, organism-based; conditions: in vivo, 0.5 h
[3] = organism: Rattus norvegicus; assay: Ratio of biodistribution in kidney and blood in normal Wistar rats at 5 min after injecting the compound.; assay type: ADME, organism-based; conditions: in vivo
[4] = organism: Rattus norvegicus; assay: The biodistribution in bone in normal Wistar rats at 5 min; assay type: ADME, organism-based, Bone element; conditions: in vivo
[5] = organism: Rattus norvegicus; assay: The biodistribution in liver in normal Wistar rats at 15 min; assay type: ADME, organism-based; conditions: in vivo, 0.25 h
[6] = Compound was tested for % clearance through the urine in normal rat; assay type: ADME, organism-based
[7] = organism: Rattus norvegicus; assay: The biodistribution in bone in normal Wistar rats at 60 min; assay type: ADME, organism-based, Bone element; conditions: in vivo, 1 h
[8] = organism: Rattus norvegicus; assay: Ratio of biodistribution in kidney and blood in normal Wistar rats at 30 min after injecting the compound; assay type: ADME, organism-based; conditions: in vivo, 0.5 h
[9] = organism: Rattus norvegicus; assay: The biodistribution in blood in normal Wistar rats at 60 min; assay type: ADME, organism-based; conditions: in vivo, 1 h
[10] = organism: Rattus norvegicus; assay: The biodistribution in blood in normal Wistar rats at 30 min; assay type: ADME, organism-based; conditions: in vivo, 0.5 h
[11] = Compound was tested for % clearance through the urine in jaundiced (TR-) Wistar rats; assay type: ADME, organism-based; conditions: rat
[12] = organism: Rattus norvegicus; assay: Ratio of biodistribution in liver and blood in normal Wistar rats at 30 min. after injecting the compound; assay type: ADME, organism-based; conditions: in vivo, 0.5 h
[13] = organism: Rattus norvegicus; assay: Ratio of biodistribution in kidney and blood in normal Wistar rats at 60 min after injecting the compound; assay type: ADME, organism-based; conditions: in vivo, 1 h
[14] = Compound was tested for % clearance through the faeces in Wistar rats; assay type: ADME, organism-based; conditions: rat, read-out: Feces
[15] = Compound was tested for % clearance through the faeces in jaundice Wistar rats; assay type: ADME, organism-based; conditions: rat, read-out: Feces
[16] = organism: Rattus norvegicus; assay: Kidney uptake in normal Wistar rats at 15 min; assay type: ADME, organism-based; conditions: in vivo, 0.25 h
[17] = organism: Rattus norvegicus; assay: Ratio of biodistribution in liver and blood in normal Wistar rats at 15 min. after injecting the compound; assay type: ADME, organism-based; conditions: in vivo, 0.25 h
[18] = organism: Rattus norvegicus; assay: The biodistribution in blood in normal Wistar rats at 15 min; assay type: ADME, organism-based; conditions: in vivo, 0.25 h
[19] = organism: Rattus norvegicus; assay: The biodistribution in liver in normal Wistar rats at 5 min; assay type: ADME, organism-based; conditions: in vivo
[20] = organism: Rattus norvegicus; assay: The biodistribution in bone in normal Wistar rats at 30 min; assay type: ADME, organism-based, Bone element; conditions: in vivo, 0.5 h
[21] = organism: Rattus norvegicus; assay: The biodistribution in bone in normal Wistar rats at 15 min; assay type: ADME, organism-based, Bone element; conditions: in vivo, 0.25 h
[22] = organism: Rattus norvegicus; assay: Kidney uptake in normal Wistar rats at 60 min; assay type: ADME, organism-based; conditions: in vivo, 1 h
[23] = organism: Rattus norvegicus; assay: Kidney uptake in normal Wistar rats at 5 min; assay type: ADME, organism-based; conditions: in vivo
[24] = organism: Rattus norvegicus; assay: Ratio of biodistribution in liver and blood in normal Wistar rats at 60 min. after injecting the compound; assay type: ADME, organism-based; conditions: in vivo, 1 h
[25] = organism: Rattus norvegicus; assay: Kidney uptake in normal Wistar rats at 30 min; assay type: ADME, organism-based; conditions: in vivo, 0.5 h
[26] = organism: Rattus norvegicus; assay: The biodistribution in blood in normal Wistar rats at 5 min; assay type: ADME, organism-based; conditions: in vivo
[27] = organism: Rattus norvegicus; assay: Ratio of biodistribution in liver and blood in normal Wistar rats at 5 min. after injecting the compound; assay type: ADME, organism-based; conditions: in vivo
[28] = organism: Rattus norvegicus; assay: Ratio of biodistribution in kidney and blood in normal Wistar rats at 15 min after injecting the compound.; assay type: ADME, organism-based; conditions: in vivo, 0.25 h
[29] = organism: Rattus norvegicus; assay: Ratio of biodistribution in kidney and blood in normal Wistar rats at 15 min after injecting the compound; assay type: ADME, organism-based; conditions: in vivo, 0.25 h
[30] = organism: Rattus norvegicus; assay: Ratio of biodistribution in kidney and blood in normal Wistar rats at 5 min after injecting the compound; assay type: ADME, organism-based; conditions: in vivo
[31] = Compound was tested for % clearance through the faeces in normal Wistar rats; assay type: ADME, organism-based; conditions: rat, read-out: Feces
[32] = Compound was tested for % clearance through the faeces in jaundiced (TR-) Wistar rats; assay type: ADME, organism-based; conditions: rat, read-out: Feces

Structure (SMILES)	ID/organ [1] [%]	ID/organ [2] [%]	ID/organ [4] [%]	ID/organ [5] [%]	dose excreted [6] [%]	ID/organ [7] [%]	ID/organ [8]	ID/organ [9] [%]	ID/organ [10] [%]	dose excreted [11] [%]	ID/organ [12]	ID/organ [13]	ID/organ [16] [%]	ID/organ [17]	ID/organ [18] [%]	ID/organ [19] [%]	ID/organ [20] [%]	ID/organ [21] [%]	ID/organ [22] [%]	ID/organ [23] [%]	other results
O=C(O)CN(CCN(CCN(CC(=O)O)CC(=O)O)[C@H](Cc1ccccc1)C(=O)O)CC(=O)O	1.1	3.15	3.28	7.63	51.9	2.4	0.46	0.71	2.03	80.4	1.55	0.82	1.63	1.69	4.67	15.6	2.31	3.81	0.57	3.45	ID/organ [3]: 0.33; dose excreted [14]: 42.8%; dose excreted [15]: 10.6%; ID/organ [24]: 1.6; ID/organ [25]: 0.92%; ID/organ [26]: 10.7%; ID/organ [27]: 1.46; ID/organ [28]: 0.36
O=C(O)CN(CCN(CCN(CC(=O)O)CC(=O)O)[C@@H](Cc1ccccc1)C(=O)O)CC(=O)O	0.82	2.37	4.59	6.84	62	2.43	0.74	0.86	2.66	85	0.9	1.3	3.04	1.1	6.36	13.2	2.17	3.76	1.1	4.74	ID/organ [29]: 0.48; ID/organ [30]: 0.37; dose excreted [31]: 29.2%; ID/organ [24]: 0.99; ID/organ [25]: 1.96%; ID/organ [26]: 12.7%; ID/organ [27]: 1.04; dose excreted [32]: 3.3%
